Measured values reported in paper PMC3495945, “Org 214007-0: A Novel Non-Steroidal Selective Glucocorticoid Receptor Modulator with Full Anti-Inflammatory Properties and Improved Therapeutic Index” (PLoS ONE, 2012).
Blank lines part the entries; values can stand above or below the compound they belong to.

Key:
[1] = tested on: endometrium in estrogen-primed immature rabbits; experiment: McPhail test (agonistic, progestational activity); format: in vivo, rabbit; conditions: 0-4 scale; 5 days; MPA 0.05 mg/kg/day, Org 214007-0 0.5 mg/kg/day; n=2
Protocol: The McPhail (or anti-McPhail) test was used to evaluate potential progestational (or anti-progestational) activity of Org 214007-0 on the endometrium in estrogen-primed immature rabbits after once-daily administration. The female NZW rabbits were housed in pairs in a light- and temperature-controlled room, fed daily with 40 - 50 g standard pelleted food and with free access to tap-water. Before treatment with compounds rabbits were primed daily in the morning with a subcutaneous dose of 2 μg estradiol benzoate for 8 days. […] Transverse sections were prepared, stained with haematoxylin-eosin and evaluated microscopically. Endometrial development was scored on a 0-4 scale as follows: score 0: no development of glands; score 1: start of development of glands; score 2: clear-cut development of glands with ducts beginning to branch; score 3: about 2/3 of stroma bearing glandual tissue; score 4: more than 2/3 of stroma bearing glandular tissue. A score of 2 or higher in both rabbits was evaluated as a positive resonse.
For both the agonistic and antagonistic test immature female NZW rabbits (n=2 per treatment group) were primed with estrogen. […] One day after the last treatment the uterus was dissected and endometrial development was scored on a 0-4 scale. […]

[2] = tested on: LPS-induced TNFα release; experiment: LPS-induced TNFα acute inflammation mouse model; format: in vivo; conditions: RU486 50 mg/kg s.c. 30 minutes before oral compound dosing
Protocol: For both the LPS-induced TNFα as well as the anti-CD3 induced IL-2 model, female Balb/c mice of 8–12 week old were used. Mice were treated orally with 0.2 ml compound or vehicle (water/mannitol (5%) with 5% DMSO/5% chremophore for the LPS model or with 0.5% gelatine for the anti-CD3 model). One hour after oral treatment animals were challenged i.p. with 0.2 ml of either 20 μg/mouse LPS (Sigma, E. coli serotype 055:B5) or 5 µg/mouse hamster anti-CD3 monoclonal (BD Biosciences Pharmingen, art. nr. 553057, clone 145-2C11). Ninety minutes after LPS injection or 3 hours after anti-CD3 challenge, blood samples were collected and serum levels of TNFα or IL-2 were determined via specific ELISAs (BD Biosciences Pharmingen, San Diego, CA, USA). In the experiment that included treatment with RU486 to block GR, mice were dosed subcutaneously with 50 mg/kg RU486 30 minutes before the oral compound dosing. ED50 and % efficacy (maximal percentage inhibition of TNFα or IL-2 release) are determined using a 3 parameter sigmoidal curve calculation. Statistical analysis of the results was performed using an one-way ANOVA (log) test.

[3] = tested on: endometrium in estrogen-primed immature rabbits; experiment: anti-McPhail test (antagonistic, anti-progestational activity); format: in vivo, rabbit; conditions: 0-4 scale; 7 days with progesterone; RU486 4 mg/kg/day, Org 214007-0 0.5 mg/kg/day oral; n=2
Protocol: For the anti-McPhail test, the estrogen-primed rabbits were subsequently treated for 7 days with inducer progesterone (0.25 mg/kg/day s.c.) in combination with an oral treatment of either placebo, reference RU486 (4 mg/kg/day) or Org 214007-0 (0.5 mg/kg/day). The uterus preparation and evaluation of the endometrium was performed as described above.
For the antagonistic test, after oestrogen priming, rabbits were treated for 7 days with progesterone and placebo, reference RU486 or Org 214007-0. One day after the last treatment the uterus was dissected and endometrial development was scored on a 0-4 scale. […] After treatment with Org 214007-0 no reduction of the endometrial transformation was observed (score 3.31), indicative for no anti-progestagenic activity

[4] = biological target: His-GR-LBD (F602S mutated); experiment: AlphaScreen or HTRF; co-factor peptide recruitment assay (Eu/APC fluorescence); 10 nM His-GR-LBD (F602S) pre-incubated 3 h at 4°C with Org 214007-0 (0.032 nM to 10 μM), then 100 nM TIF2-3 peptide, 8 nM streptavidin-APC and 1.25 nM anti-His-Eu, 20 h at 4°C

Compound: CC(=O)O[C@]1(C(C)=O)CC[C@H]2[C@@H]3C[C@H](C)C4=CC(=O)CC[C@]4(C)[C@H]3CC[C@@]21C [MPA, medroxyprogesterone acetate, reference compound]
endometrial development score, agonistic test [1]: 2.5

Compound: CC#C[C@]1(O)CC[C@H]2[C@@H]3CCC4=CC(=O)CCC4=C3[C@@H](c3ccc(N(C)C)cc3)C[C@@]21C [RU486, mifepristone, reference compound]
effect of RU486 on inhibition of TNFα by Org 214007-0 or prednisolone [2]: fully antagonized
endometrial development score, antagonistic test [3]: 0.5

percentage maximal efficacy of peptide recruitment with Org 214007-0, relative to prednisolone (100%) [4]: 67%
Compound: peptide representing Transcriptional Intermediary Factor 2 - LXXLL motif 3 (TIF2-3)
